These results are taken from patent US12030877B2, “Prostaglandin E synthase inhibitors and methods for utilizing the same” (University of Kentucky Research Foundation, priority 2016, dated 2024).

One experiment has as its target T1, mPGES-1 (Homo sapiens, UniProt O14684).
T1 sequence (O14684 1-152): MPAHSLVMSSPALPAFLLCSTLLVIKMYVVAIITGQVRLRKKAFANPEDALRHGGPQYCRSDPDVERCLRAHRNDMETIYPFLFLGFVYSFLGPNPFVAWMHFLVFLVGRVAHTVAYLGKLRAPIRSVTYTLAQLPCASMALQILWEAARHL
As to the kind of experiment: mPGES-1 enzyme activity assay (PGE2 enzyme immunoassay), human enzyme. It counts as biochemical. Further details: made in house; host or cells: FreeStyle 293-F cells, crude microsomal preparation. Conditions: recombinant microsomal enzyme; means ± SD, triplicate; read-out: IC50 against mPGES-1, Human enzyme. The procedure: (§1) Studies were conducted to characterize the inhibitory activity against recombinant mPGES-1 of the compounds synthesized in accordance with Examples 1-4, and disclosed herein.
(§2) Briefly, FreeStyle 293-F cells were cultured following manufacturer's manual in FreeStyle 293 expression medium on orbit rotate shaker in 8% CO2 incubator at 37° C. Cells were transfected with 1.5 μg/mL of mPGES-1/pcDNA3 construct using FreeStyle Max reagent at a cell density of 1×10^6 for 2 days. Transfected cells were collected, washed, and sonicated in TSES buffer (15 mM Tris-HCl, pH 8.0 plus 0.25 M sucrose, 0.1 mM EDTA and 1 mM DTT) on ice. The broken cells were first centrifuged at 12,500×g for 10 min. The supernatant was further centrifuged at 105,000×g for 1 hr at 4° C. The pellet was washed and homogenized in PBS buffer. The crude microsomal mPGES-1 preparation was aliquoted and stored at −80° C. The crude protein concentration was 8 mg/mL.
(§3) The enzyme activity assays were performed on ice in 1.5 ml microfuge tubes by using the expressed mPGES-1. The reaction mixture contained: 0.2 M Na2HPO4/NaH2PO4, pH 7.2, 10 μL; 0.1 M GSH, 2.5 μL; diluted microsomal enzyme (80 μg/mL), 1 μL; PGH2 (0.31 mM in DMF), 5 μL; 1 μL inhibitor; and H2O in a final reaction volume of 100 μL. PGH2 was stored in dry ice and used to initiate the reaction.
(§4) Compounds were incubated with the enzyme for 15 min at room temperature before the addition of cold PGH2 (1 μM final) to initiate the enzyme reaction. After 30 s, 10 μL of SnCl2 (40 mg/mL) in ethanol was added to stop the reaction. The nonenzymatic conversion of PGH2 to PGE2 was performed in the same buffer devoid of enzyme. The reaction mixture was placed on ice until PGE2 production was determined by the PGE2 enzyme immunoassay as described earlier. IC50 values of the inhibitors were calculated by using the GraphPad Prism 4.0 program. The results are set forth in the tables provided in Examples 7-10.

The next experiment deals with T2, mPGES-1 Mouse enzyme (Mus musculus, UniProt Q9JM51).
T2 construct: made in house; host or cells: FreeStyle 293-F cells, crude microsomal preparation
T2 sequence (Q9JM51 1-153): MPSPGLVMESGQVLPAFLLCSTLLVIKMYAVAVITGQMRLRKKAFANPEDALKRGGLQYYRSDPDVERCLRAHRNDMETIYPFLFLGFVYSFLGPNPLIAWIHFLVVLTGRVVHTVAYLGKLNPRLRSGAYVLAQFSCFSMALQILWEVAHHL
As to the kind of experiment: mPGES-1 enzyme activity assay (PGE2 enzyme immunoassay), mouse enzyme. Conditions: for IC50: recombinant microsomal enzyme, means ± SD, triplicate, read-out: IC50 against mPGES-1, Mouse enzyme; for inhibition at 10 µM: compound at a concentration of 10 μM, read-out: % inhibition of the compound against mPGES-1, Mouse enzyme. It counts as biochemical. Here is the method:
as §1, §2, §3, §4

For orientation: IC50 means the midpoint of a concentration-inhibition curve. Regarding `CCCCCCCOc1c(Br)cc(C=C(C#N)C#N)cc1OC` [Compound V-15], the IC50 on mPGES-1 amounted to 83 ± 14 nM; on mPGES-1 Mouse enzyme it was 357 ± 52 nM.

As to `CCCCCCCCOc1c(Br)cc(C=C(C#N)C#N)cc1OC` [Compound V-18], the values for the IC50 at mPGES-1 and at mPGES-1 Mouse enzyme were 74 ± 8 nM and 572 ± 83 nM, respectively.

Turning to `CCCCCCCCCCCCCCCCCCOc1c(Br)cc(C=C(C#N)C#N)cc1OC` [Compound V-20], the IC50 is 50 ± 9 nM on mPGES-1 and 270 ± 64 nM on mPGES-1 Mouse enzyme.

For `CCCCOc1ccc(C=C(C#N)C#N)cc1OC` [Compound V-22], the 50% inhibitory concentration (IC50) at mPGES-1 was determined as 348 ± 100 nM; at mPGES-1 Mouse enzyme, 1770 ± 241 nM.

Take `CCCCCCCCCCOc1ccc(/C=C(\C#N)C(=O)O)cc1OC` [Compound V-27]: the half-inhibitory concentration (IC50) at mPGES-1 amounted to 51 ± 10 nM; at mPGES-1 Mouse enzyme, 390 ± 84 nM.

For `CCCCCCCOc1ccc(C=C(C#N)C#N)cc1OC` [Compound V-35], the values for the concentration for half-maximal inhibition (IC50) at mPGES-1 and on mPGES-1 Mouse enzyme were 256 ± 33 nM and 7290 ± 2550 nM, respectively.

What is called inhibition is how much of the control response was suppressed. Take `O=C(O)CN1C(=O)S/C(=C2\C(=O)N(Cc3ccccc3)c3ccccc32)C1=O` [II-01]: the IC50 at mPGES-1 came out at 817 ± 79 nM. Moreover, the inhibition at 10 µM on mPGES-1 Mouse enzyme amounted to 10%.

Take `O=C(O)CN1C(=O)S/C(=C2\C(=O)N(Cc3ccc(Cl)cc3)c3ccccc32)C1=O` [II-02]: the IC50 on mPGES-1 is 614 ± 63 nM. Further, on mPGES-1 Mouse enzyme, the inhibition at 10 µM stood at 45%.

As to `O=C(O)CN1C(=O)S/C(=C2\C(=O)N(CCc3ccccc3)c3ccccc32)C1=O` [II-03], the IC50 on mPGES-1 was found to be 348 ± 44 nM. The inhibition at 10 µM at mPGES-1 Mouse enzyme amounted to 62%.

For `O=C(O)CN1C(=O)S/C(=C2\C(=O)N(CCCc3ccccc3)c3ccccc32)C1=O` [II-04], the half-maximal inhibitory concentration (IC50) is 2400 ± 132 nM on mPGES-1 and 747 ± 163 nM on mPGES-1 Mouse enzyme.

As for `O=C(O)CN1C(=O)S/C(=C2\C(=O)N(CCCCc3ccccc3)c3ccccc32)C1=O` [II-05], the IC50 at mPGES-1 came to 963 ± 87 nM. Further, the inhibition at 10 µM on mPGES-1 Mouse enzyme turned out to be 61%.

Turning to `O=C(O)CN1C(=O)S/C(=C2\C(=O)N(CC3CCCCC3)c3ccccc32)C1=O` [II-06], the IC50 was found to be 1270 ± 104 nM at mPGES-1 and 2730 ± 422 nM at mPGES-1 Mouse enzyme.

For the compound `O=C(O)CN1C(=O)S/C(=C2\C(=O)N(CCC3CCCCC3)c3ccccc32)C1=O` [II-07], the IC50 on mPGES-1 was 494 ± 32 nM. Moreover, at mPGES-1 Mouse enzyme, the inhibition at 10 µM was 39%.

For the compound `O=C(O)CN1C(=O)S/C(=C2\C(=O)N(CCCC3CCCCC3)c3ccccc32)C1=O` [II-08], the half-inhibitory concentration (IC50) at mPGES-1 was 253 ± 30 nM; at mPGES-1 Mouse enzyme, 1520 ± 317 nM.

Take `O=C(O)CN1C(=O)S/C(=C2\C(=O)N(CCCCC3CCCCC3)c3ccccc32)C1=O` [II-09]: the IC50 on mPGES-1 is 499 ± 108 nM; at mPGES-1 Mouse enzyme, 947 ± 183 nM.

Consider `O=C(O)CN1C(=O)S/C(=C2\C(=O)N(CCCOc3ccccc3)c3ccccc32)C1=O` [II-10], for which the concentration for half-maximal inhibition (IC50) on mPGES-1 was 805 ± 100 nM. The inhibition at 10 µM at mPGES-1 Mouse enzyme was determined as 41%.

As to `O=C(O)CN1C(=O)S/C(=C2\C(=O)N(CCCOc3ccc4ccccc4c3)c3ccccc32)C1=O` [II-11], the values for the IC50 on mPGES-1 and at mPGES-1 Mouse enzyme were 1680 ± 168 nM and 1020 ± 131 nM, respectively.

In the case of `CCCCCN1C(=O)/C(=C2\SC(=O)N(CC(=O)O)C2=O)c2ccccc21` [II-12], the IC50 at mPGES-1 turned out to be 1660 ± 168 nM. Also, the inhibition at 10 µM on mPGES-1 Mouse enzyme was 35%.

Turning to `CCCCCCN1C(=O)/C(=C2\SC(=O)N(CC(=O)O)C2=O)c2ccccc21` [II-13], the 50% inhibitory concentration (IC50) at mPGES-1 stood at 1070 ± 116 nM. The inhibition at 10 µM at mPGES-1 Mouse enzyme was 57%.

For the compound `CCCCCCCN1C(=O)/C(=C2\SC(=O)N(CC(=O)O)C2=O)c2ccccc21` [II-14], at mPGES-1, the IC50 amounted to 324 ± 44 nM. The inhibition at 10 µM at mPGES-1 Mouse enzyme worked out at 67%.

For the compound `CCCCCCCCN1C(=O)/C(=C2\SC(=O)N(CC(=O)O)C2=O)c2ccccc21` [II-15], the IC50 was determined as 314 ± 44 nM at mPGES-1 and 2680 ± 302 nM at mPGES-1 Mouse enzyme.

On to `CCCCCCCCCN1C(=O)/C(=C2\SC(=O)N(CC(=O)O)C2=O)c2ccccc21` [II-16], for which the IC50 at mPGES-1 came out at 199 ± 32 nM; on mPGES-1 Mouse enzyme, 1400 ± 217 nM.

On to `CCCCCCCCCCN1C(=O)/C(=C2\SC(=O)N(CC(=O)O)C2=O)c2ccccc21` [II-17], for which the 50% inhibitory concentration (IC50) on mPGES-1 amounted to 217 ± 30 nM; on mPGES-1 Mouse enzyme, 935 ± 135 nM.

On to `O=C(O)CN1C(=O)S/C(=C2\C(=O)N(CC3CCCCC3)c3ccc(-c4ccccc4)cc32)C1=O` [II-18], for which the results for the concentration for half-maximal inhibition (IC50) on mPGES-1 and on mPGES-1 Mouse enzyme were 221 ± 47 nM and 394 ± 58 nM, respectively.
